Experimental data as given in patent publication US20100239556A1, “PROMOTING ECM PRODUCTION BY FIBROBLAST CELLS AND/OR PROMOTING MIGRATION OF FIBROBLAST CELLS IN A BIOLOGICAL SYSTEM” (TGR BioScience Pty Ltd., priority 2006, published 2010).

B1: horse radish peroxidase (protein, UniProt P00433 31-338, looked up)
Peroxidase C1A: QLTPTFYDNSCPNVSNIVRDTIVNELRSDPRIAASILRLHFHDCFVNGCDASILLDNTTSFRTEKDAFGNANSARGFPVIDRMKAAVESACPRTVSCADLLTIAAQQSVTLAGGPSWRVPLGRRDSLQAFLDLANANLPAPFFTLPQLKDSFRNVGLNRSSDLVALSGGHTFGKNQCRFIMDRLYNFSNTGLPDPTLNTTYLQTLRGLCPLNGNLSALVDFDLRTPTIFDNKYYVNLEEQKGLIQSDQELFSSPNATDTIPLVRSFANSTQTFFNAFVEAMDRMGNITPLTGTQGQIRLNCRVVNSNS

Legend:
dermis = test: Fibrogenic response after intradermal injection; type: in vivo, Sprague-Dawley rats
Experimental: Groups of up to 4-8 female Sprague-Dawley rats were lightly anaesthetized and the dorsum shaved. At different sites on their dorsum, each rat received a bolus, intradermal injection of 4 doses of a protein with peroxidase activity (LP, […]; HRP, 1.25-25 μg; SBP, 1.25-25 μg; or micro-peroxidase [MP], 5-125 μg), a vehicle control or TGFβ2 as a positive control. Arthromyces ramosus peroxidase (ARP) was also injected at one dose of 25 μg. Proteins with peroxidase activity were injected in a volume of 50 μl which was sufficient to create a small blister in the skin that resolved within a few minutes. Across the group of rats, each dose of proteins with peroxidase activity was injected into each of the different injection sites to control for any site-related, intra-rat variation. The rats were returned to their cage and left alone for 3 days after which they were killed by CO2 asphyxiation and the skin at the injection sites collected for analysis. The skin at the injection sites was excised using a 6 mm biopsy punch with each piece bisected and fixed in 10% buffered formalin. Fixed tissue was processed for histological assessment by graded dehydration and mounting in paraffin blocks. Blocks were sectioned and sections stained with haematoxylin and eosin (H&E) and Masson's trichrome for qualitative analysis by an experienced pathologist. H&E stained sections were scored for the “fibroblast reaction” (1+-4+) to reflect the number of fibroblast cells identified at the injection site, with 4+ representing the greatest response. H&E and Massons trichrome stained sections were used to evaluate the amount of deposited, collagen-rich extracellular matrix (ECM) that was associated with the fibroblast reaction at each injection site. The collagen-rich ECM deposition was scored 1+-3+ with 3+ representing the greatest response. The scores were combined across the group of rats and statistical analysis performed using a Kruskal-Wallis one way analysis of variance on ranks (ANOVA) followed by post-hoc t-test comparing the response of the proteins with peroxidase activity to the control using Dunn's or Dunnett's method, p<0.05 was considered significant.

human skin = test: Collagen I and III immunohistochemistry in ex vivo human skin (Franz cell); conditions: intradermal injection 100 μl, 72 hours
Experimental: To confirm proteins with peroxidise activity can stimulate ECM production in human skin, studies were performed on ex vivo skin collected from tissue reduction surgery. The studies were undertaken using a modification of the OECD Test Guideline 428 (2004) Skin Absorption: in vitro method. Freshly excised human skin was collected in a
Hanks balanced salt solution (HBSS) and after being thoroughly washed in sterile, colour free DMEM/F12 media (Dulbecco's Modified Eagle Medium/Hams F12, Invitrogen) to remove surface debris, the subcutaneous fat layer was removed. Circles of full-thickness skin 15 mm in diameter were cut and placed epidermis side up on vertical glass diffusion cells of a Franz cell diffusion system (Crown Glass Co, NJ, USA). The skin was secured between two clamped ground glass joints and allowed to equilibrate and hydrate for approximately 30 minutes with the receptor chambers of the diffusion cells containing colour-free DMEM/F12+1% (v/v) of an antibiotic mix (200 mM L-glutamine, 10,000 units penicillin, 10 mg streptomycin per ml; Sigma, USA). The temperature of the jacketed diffusion cells was maintained at 34° C.±1° C. and the contents were constantly stirred using a mini magnetic stirrer. Proteins with peroxidase activity or a control were injected intradermally into the skin discs in a volume of 100 μl using a 27 gauge needle. After 72 hours the skin discs were removed and bisected with one half fixed in 4% buffered formalin for histological assessment and the other half snap frozen in liquid nitrogen for immunohistochemical detection of collagen I and III protein within the dermis. Frozen skin pieces were processed into cryoblocks, cut onto slides and fixed in acetone/methanol. All slides were blocked with 2% (w/v) bovine serum albumin (BSA) in HBSS and then incubated with either anti-human collagen type I or III primary antibodies (Chemical Credential, ICN or DakoCytomation respectively). The secondary antibody was biotinylated Multi-Link (DakoCytomation) with detection by streptavidin-biotinylated alkaline phosphatase (DakoCytomation). Visualisation was achieved by incubating each section with Naphthol AS/MX phosphate/fast red substrate containing 5 mM levamisole (Sigma). After washing, slides were counter stained with Mayer's Haematoxylin and assessed for collagen expression.

[1] = 50 μg and 125 μg, 3 days, p<0.05
[2] = intradermal, 3 days, over the doses tested

Molecule	deposition of collagen rich ECM, histology score (1+-3+) (dermis; 25 μg, 72 hours)	fibroblast reaction, histology score (1+-4+) (dermis; 25 μg, 72 hours)	collagen III immuno-reactivity (human skin)	staining intensity for collagen I (human skin)	deposition of collagen-rich ECM versus control (dermis; [1])	fibroblast reaction versus vehicle control (dermis; [1])	number of fibroblasts present at the injection site (H&E images) (dermis; LP 125 μg, TGFβ 0.5 μg, 3 days)	deposition of collagen-rich ECM versus control (dermis; [2])	fibroblast reaction / tissue fibroblast content at the injection site versus control (dermis; [2])	deposition of collagen-rich ECM versus control (dermis; 5-25 μg, 3 days, p<0.05)	tissue fibroblast content versus control (dermis; 5-25 μg, 3 days, p<0.05)	deposition of collagen-rich ECM versus control (dermis; 25 μg, 3 days, p<0.05)	tissue fibroblast content versus control (dermis; 25 μg, 3 days, p<0.05)
Arthromyces ramosus peroxidase [ARP]	two	two											
lactoperoxidase [LP]			did not appear to affect collagen III immuno-reactivity	increased staining intensity for collagen I	significant increase compared to the control	statistically significant response	profound increase in the number of fibroblasts	dose-dependent effect	dose-dependent increase in the fibroblast reaction				
microperoxidase [MP]			increased collagen III staining	increased staining intensity for collagen I				stimulated the deposition of collagen-rich ECM in a significant, dose dependent manner	significantly increased the tissue fibroblast content				
soy bean peroxidase [SBP]								markedly increased	markedly increased the tissue fibroblast content	statistically significant response	statistically significant response		
B1			increased collagen III staining	increased staining intensity for collagen I				markedly increased	markedly increased the tissue fibroblast content			statistically significant response	statistically significant response
